Data reported in ChEMBL document CHEMBL5223136, “Covalent drugs targeting histidine - an unexploited opportunity?” (RSC Med Chem, 2022).

Columns and labels:
[1] = Metabolic stability in human plasma assessed as half life and measured upto 240 mins by LC-MS/MS analysis; assay type: ADME, cell-free
[2] = Microsomal stability in human liver microsomes assessed as intrinsic clearance and measured upto 60 mins in presence of NADPH by LC-MS/MS analysis; assay type: ADME, Microsome; settings: read-out: CLH
[3] = Metabolic stability in human hepatocytes assessed as intrinsic clearance and measured upto 60 mins in presence of NADPH by LC-MS/MS analysis; assay type: ADME, cell-based, Hepatocyte; settings: read-out: CLH

Structure (SMILES)	half-life [1]	CLint scaled [2]	CLint scaled [3]
O=C1CCC(N2Cc3ccccc3C2=O)C(=O)N1 (configuration not stated)	1.98 h	< 6.1 mL/min/kg	< 9.6 mL/min/kg
O=C1CCC(N2Cc3ccc(S(=O)(=O)F)cc3C2=O)C(=O)N1 (configuration not stated)	–	13.7 mL/min/kg	< 9.6 mL/min/kg
O=C1CCC(N2Cc3ccc(OS(=O)(=O)F)cc3C2=O)C(=O)N1 (configuration not stated)	–	< 6.1 mL/min/kg	< 9.6 mL/min/kg
